Laboratory results: ChEMBL document CHEMBL4834480, “Discovery of 3,5-Dimethyl-4-Sulfonyl-1H-Pyrrole-Based Myeloid Cell Leukemia 1 Inhibitors with High Affinity, Selectivity, and Oral Bioavailability” (J Med Chem, 2021)
Activity calls are given as the source filed them. The rule behind the calls is not given here.

Key:
[1] = biological target: T1, Induced myeloid leukemia cell differentiation protein Mcl-1 (Homo sapiens, UniProt Q07820); assay: Inhibition of FITC-labeled Bak BH3 peptide binding to GST-tagged MCL1 (171 to 327 residues) (unknown origin) expressed in Escherichia coli BL21 (DE3) incubated for 30 mins fluorescence polarization-based competitive binding assay
Bcl-2-like protein 1 = Bcl-2-like protein 1 (Homo sapiens, UniProt Q07817); assay: Inhibition of BCL-XL(unknown origin) at 10 uM incubated for 120 mins by TR-FRET assay relative to control
[2] = biological target: Apoptosis regulator Bcl-2 (Homo sapiens, UniProt P10415); assay: Inhibition of FITC-labeled Bak BH3 peptide binding to GST-tagged BCL2 (1 to 205 residues) (unknown origin) expressed in Escherichia coli BL21 (DE3) at 10 uM incubated for 30 mins fluorescence polarization-based competitive binding assay relative to control
NCI-H929 [3] = assay: Antiproliferative activity against human NCI-H929 cells assessed as decrease in cell viability measured after 72 hrs by MTT assay; format: functional, cell-based; details: NCI-H929, 72 h
MV4-11 = assay: Antiproliferative activity against human MV4-11 cells assessed as decrease in cell viability measured after 72 hrs by MTT assay; format: functional, cell-based; details: MV4-11, 72 h
SK-BR-3 = assay: Antiproliferative activity against human SK-BR-3 cells assessed as decrease in cell viability measured after 72 hrs by MTT assay; format: functional, cell-based; details: SK-BR-3, 72 h
NCI-H23 = assay: Antiproliferative activity against human NCI-H23 cells assessed as decrease in cell viability measured after 72 hrs by MTT assay; format: functional, cell-based; details: NCI-H23, 72 h
K562 [4] = assay: Antiproliferative activity against human K562 cells assessed as decrease in cell viability measured after 72 hrs by MTT assay; format: functional, cell-based; details: K562, 72 h
[5] = biological target: T1, Induced myeloid leukemia cell differentiation protein Mcl-1; assay: Inhibition of FITC-labeled Bak BH3 peptide binding to GST-tagged MCL1 (171 to 327 residues) (unknown origin) expressed in Escherichia coli BL21 (DE3) at 30 uM incubated for 30 mins fluorescence polarization-based competitive binding assay relative to control
[6] = biological target: T2, Bcl-2-related protein A1 (Homo sapiens) (UniProt Q16548); assay: Inhibition of FITC-labeled Bak BH3 peptide binding to GST-tagged BFL1 (1 to 151 residues) (unknown origin) expressed in Escherichia coli BL21 (DE3) at 10 uM incubated for 30 mins fluorescence polarization-based competitive binding assay relative to control
T2 sequence (whole entry): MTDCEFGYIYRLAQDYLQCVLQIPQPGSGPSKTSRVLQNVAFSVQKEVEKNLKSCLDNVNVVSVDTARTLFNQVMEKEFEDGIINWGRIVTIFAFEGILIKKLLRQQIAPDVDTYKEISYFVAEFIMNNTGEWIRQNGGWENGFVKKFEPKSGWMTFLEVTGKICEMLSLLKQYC

NCI-H929 [7] = assay: Induction of apoptosis in human NCI-H929 cells measured after 48 hrs by annexinV-FITC/propidium iodide staining based flow cytometry analysis; format: functional, cell-based; details: dose 1-5 µM
NCI-H929 [8] = assay: Induction of apoptosis in human NCI-H929 cells assessed as upregulation of cleaved PARP measured after 48 hrs by Western blot analysis; format: functional, cell-based; details: dose microM <=5, time 48.0 hrs
K562 [9] = assay: Induction of apoptosis in human K562 cells assessed as upregulation of cleaved PARP up to 5 uM measured after 48 hrs by Western blot analysis; format: functional, cell-based; details: dose microM <=5, time 48.0 hrs
K562 [10] = assay: Induction of apoptosis in human K562 cells assessed as activation of caspase 3 up to 5 uM after 4 hrs by luminescence based microplate reader assay; format: functional, cell-based; details: dose microM <=5, time 4.0 hrs
K562 [11] = assay: Induction of apoptosis in human K562 cells assessed as activation of caspase 7 up to 5 uM after 4 hrs by luminescence based microplate reader assay; format: functional, cell-based; details: dose microM <=5, time 4.0 hrs

Chain of Apoptosis regulator Bcl-2 (P10415 whole entry, the tested form may be a part): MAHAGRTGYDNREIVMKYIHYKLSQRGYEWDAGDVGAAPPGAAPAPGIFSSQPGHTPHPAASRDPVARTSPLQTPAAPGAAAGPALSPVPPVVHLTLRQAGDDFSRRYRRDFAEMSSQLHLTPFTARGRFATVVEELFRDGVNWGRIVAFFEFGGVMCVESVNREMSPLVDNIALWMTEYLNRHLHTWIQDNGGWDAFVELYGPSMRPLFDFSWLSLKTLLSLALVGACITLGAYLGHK
T1 sequence (Q07820 whole entry, the tested form may be a part): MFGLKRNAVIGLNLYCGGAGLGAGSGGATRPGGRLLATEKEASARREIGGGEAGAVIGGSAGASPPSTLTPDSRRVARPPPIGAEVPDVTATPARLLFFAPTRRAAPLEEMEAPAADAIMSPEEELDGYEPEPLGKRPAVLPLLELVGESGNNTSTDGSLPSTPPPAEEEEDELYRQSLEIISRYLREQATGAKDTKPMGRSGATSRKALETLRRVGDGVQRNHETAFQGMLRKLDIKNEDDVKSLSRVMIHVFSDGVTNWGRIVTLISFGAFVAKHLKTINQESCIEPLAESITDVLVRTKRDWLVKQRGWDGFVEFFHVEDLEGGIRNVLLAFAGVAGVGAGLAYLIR
Chain of Bcl-2-like protein 1 (Q07817 whole entry, the tested form may be a part): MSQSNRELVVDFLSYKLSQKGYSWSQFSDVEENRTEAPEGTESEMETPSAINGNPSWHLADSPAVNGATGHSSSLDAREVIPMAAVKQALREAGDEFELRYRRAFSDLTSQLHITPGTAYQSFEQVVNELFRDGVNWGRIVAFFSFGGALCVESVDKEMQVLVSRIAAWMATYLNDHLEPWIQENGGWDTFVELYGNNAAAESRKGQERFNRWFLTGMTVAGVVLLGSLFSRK

| SMILES | Ki [1] | also measured |
| --- | --- | --- |
| Cc1cc(OCCCn2c(C)c(S(=O)(=O)c3ccc(Oc4ccccc4)cc3)c(C)c2C(=O)O)cc(C)c1Cl | 200 nM |  |
| Cc1cc(OCCCn2c(C)c(S(=O)(=O)c3ccc(C(C)(C)C)cc3)c(C)c2C(=O)O)cc(C)c1Cl | 340 nM |  |
| Cc1cc(OCCCn2c(C)c(S(=O)(=O)c3ccccc3O)c(C)c2C(=O)O)cc(C)c1Cl | 150 nM |  |
| Cc1ccc(S(=O)(=O)c2cc(C(=O)O)n(CCCOc3cc(C)c(Cl)c(C)c3)c2)cc1 | 470 nM |  |
| Cc1cc(OCCCn2c(C)c(S(=O)(=O)c3ccc(Cl)cc3)c(C)c2C(=O)O)cc(C)c1Cl | 180 nM |  |
| CC(=O)c1ccccc1S(=O)(=O)c1c(C)c(C(=O)O)n(CCCOc2cc(C)c(Cl)c(C)c2)c1C | 500 nM |  |
| Cc1cc(OCCCn2c(C)c(S(=O)(=O)C3CCCC3)c(C)c2C(=O)O)cc(C)c1Cl | > 10000 nM |  |
| Cc1cc(OCCCn2c(C)c(S(=O)(=O)C3CCCCC3)c(C)c2C(=O)O)cc(C)c1Cl | > 10000 nM |  |
| Cc1ccc(S(=O)(=O)c2c(C)c(C(=O)O)n(CCCOc3cc(C)c(Cl)c(C)c3)c2CC(C)C)cc1 | 1600 nM |  |
| Cc1ccc(S(=O)(=O)Nc2cc(C(=O)O)n(CCCOc3cc(C)c(Cl)c(C)c3)c2)cc1 | > 10000 nM |  |
| Cc1cc(OCCCn2c(C)c(S(=O)(=O)c3cccs3)c(C)c2C(=O)O)cc(C)c1Cl | 80 nM | inhibition (Bcl-2-like protein 1): 37%; inhibition [2]: 7.54%; IC50 (NCI-H929 [3]): 700 nM; IC50 (MV4-11): 2300 nM; IC50 (SK-BR-3): 5130 nM; IC50 (NCI-H23): 3100 nM; IC50 (K562 [4]): 11300 nM |
| CCc1c(S(=O)(=O)c2ccc(C)cc2)c(C)c(C(=O)O)n1CCCOc1cc(C)c(Cl)c(C)c1 | 2490 nM |  |
| Cc1cc(OCCCn2c(C)c(S(=O)(=O)c3ccc(C(=O)c4ccccc4)cc3)c(C)c2C(=O)O)cc(C)c1Cl | 380 nM |  |
| Cc1cc(OCCCn2c(C)c(S(=O)(=O)c3cccc(O)c3)c(C)c2C(=O)O)cc(C)c1Cl | 150 nM |  |
| Cc1cc(OCCCn2c(C)c(S(=O)(=O)c3ccc(C(=O)O)cc3)c(C)c2C(=O)O)cc(C)c1Cl | 420 nM |  |
| Cc1ccc(S(=O)(=O)c2c(C)c(C(=O)O)n(CCCOc3cc(C)c(Cl)c(C)c3)c2C)cc1 | 170 nM |  |
| Cc1cc(OCCCn2c(C)c(S(=O)(=O)Cc3ccccc3)c(C)c2C(=O)O)cc(C)c1Cl | 2000 nM |  |
| Cc1cc(OCCCn2c(C)c(S(=O)(=O)c3ccc(-c4ccccc4)cc3)c(C)c2C(=O)O)cc(C)c1Cl | 130 nM |  |
| Cc1ccc(Sc2c(C)c(C(=O)O)n(CCCOc3cc(C)c(Cl)c(C)c3)c2C)cc1 | 680 nM |  |
| Cc1cc(OCCCn2c(C)c(S(=O)(=O)c3ccc(O)cc3)c(C)c2C(=O)O)cc(C)c1Cl | 18 nM | IC50 (NCI-H929 [3]): 1390 nM; IC50 (MV4-11): 2020 nM; IC50 (SK-BR-3): 7020 nM; IC50 (NCI-H23): 2160 nM; IC50 (K562 [4]): 14800 nM |
| Cc1cc(OCCCn2c(C)c(S(=O)(=O)c3ccccc3Br)c(C)c2C(=O)O)cc(C)c1Cl | > 10000 nM |  |
| CCc1c(S(=O)(=O)c2ccc(C)cc2)c(C)n(CCCOc2cc(C)c(Cl)c(C)c2)c1C(=O)O | 120 nM |  |
| Cc1cc(C)cc(S(=O)(=O)c2c(C)c(C(=O)O)n(CCCOc3cc(C)c(Cl)c(C)c3)c2C)c1 | > 10000 nM |  |
| CCc1c(S(=O)(=O)c2ccc(C)cc2)c(CC)n(CCCOc2cc(C)c(Cl)c(C)c2)c1C(=O)O | 1930 nM |  |

| SMILES | Ki [1] | also measured |
| --- | --- | --- |
| Cc1ccc(CNc2cc(C(=O)O)n(CCCOc3cc(C)c(Cl)c(C)c3)c2)cc1 | > 10000 nM |  |
| Cc1ccc(Cc2cc(C(=O)O)n(CCCOc3cc(C)c(Cl)c(C)c3)c2)cc1 | 5340 nM | inhibition [5]: 53% |
| Cc1ccc(S(=O)(=O)c2c(CC(C)C)c(C(=O)O)n(CCCOc3cc(C)c(Cl)c(C)c3)c2C)cc1 | 240 nM |  |
| Cc1ccc(C(=O)c2cc(C(=O)O)n(CCCOc3cc(C)c(Cl)c(C)c3)c2)cc1 | 700 nM |  |
| Cc1cc(OCCCn2c(C)c(S(=O)(=O)c3cccc4ccccc34)c(C)c2C(=O)O)cc(C)c1Cl | 360 nM |  |
| CCc1ccc(S(=O)(=O)c2c(C)c(C(=O)O)n(CCCOc3cc(C)c(Cl)c(C)c3)c2C)cc1 | 70 nM | inhibition (Bcl-2-like protein 1): 36%; inhibition [2]: 12.4%; inhibition [6]: 8.77%; IC50 (NCI-H929 [3]): 490 nM; IC50 (MV4-11): 2590 nM; IC50 (SK-BR-3): 3920 nM; IC50 (NCI-H23): 5410 nM; IC50 (K562 [4]): > 30000 nM |
| Cc1cc(OCCCn2c(C)c(S(=O)(=O)c3ccc(F)cc3)c(C)c2C(=O)O)cc(C)c1Cl | 260 nM |  |
| COc1ccc(S(=O)(=O)c2c(C)c(C(=O)O)n(CCCOc3cc(C)c(Cl)c(C)c3)c2C)cc1 | 70 nM | inhibition (Bcl-2-like protein 1): 27%; inhibition [2]: 14.2%; inhibition [6]: 1.82%; IC50 (NCI-H929 [3]): 390 nM; IC50 (MV4-11): 1560 nM; IC50 (SK-BR-3): 6270 nM; IC50 (NCI-H23): 9720 nM; IC50 (K562 [4]): > 30000 nM |
| Cc1cc(OCCCn2c(C)c(S(=O)(=O)c3ccc(C(C)C)cc3)c(C)c2C(=O)O)cc(C)c1Cl | 170 nM |  |
| COc1ccccc1S(=O)(=O)c1c(C)c(C(=O)O)n(CCCOc2cc(C)c(Cl)c(C)c2)c1C | 430 nM |  |
| Cc1cc(OCCCn2c(C)c(S(=O)(=O)c3ccc([N+](=O)[O-])cc3)c(C)c2C(=O)O)cc(C)c1Cl | 420 nM |  |
| CCOc1ccc(S(=O)(=O)c2c(C)c(C(=O)O)n(CCCOc3cc(C)c(Cl)c(C)c3)c2C)cc1 | 140 nM |  |
| Cc1cc(OCCCn2c(C)c(S(=O)(=O)c3ccncc3)c(C)c2C(=O)O)cc(C)c1Cl | 900 nM |  |
| Cc1cc(OCCCn2c(C)c(S(=O)(=O)c3ccc(N)cc3)c(C)c2C(=O)O)cc(C)c1Cl | 340 nM |  |
| Cc1ccc(S(=O)(=O)c2cn(CCCOc3cc(C)c(Cl)c(C)c3)c(C(=O)O)c2C)cc1 | 810 nM |  |
| COc1cccc(S(=O)(=O)c2c(C)c(C(=O)O)n(CCCOc3cc(C)c(Cl)c(C)c3)c2C)c1 | 200 nM |  |
| Cc1nn(C)c(COc2ccc(N3CCN(S(=O)(=O)N(C)C)CC3)cc2)c1-c1cccc2c(CCCOc3cccc4ccccc34)c(C(=O)O)n(CCN3CCOCC3)c12 | 6 nM | IC50 (NCI-H929 [3]): 900 nM; IC50 (MV4-11): 1550 nM; IC50 (SK-BR-3): 4310 nM; IC50 (NCI-H23): 13500 nM; IC50 (K562 [4]): > 30000 nM; Activity (NCI-H929 [7]): Dose-Dependent Effect; Activity (NCI-H929 [8]): Dose-Dependent Effect; Activity (K562 [9]): inactive; Activity (K562 [10]): inactive; Activity (K562 [11]): inactive |
| Cc1cc(OCCCn2c(C)c(S(=O)(=O)c3c(C)cccc3C)c(C)c2C(=O)O)cc(C)c1Cl | > 10000 nM |  |
| Cc1cc(OCCCn2c(C)c(S(=O)(=O)c3ccccn3)c(C)c2C(=O)O)cc(C)c1Cl | 1900 nM |  |
| Cc1cc(OCCCn2c(C)c(S(=O)(=O)c3ccccc3)c(C)c2C(=O)O)cc(C)c1Cl | 190 nM |  |
| CC(=O)c1cccc(S(=O)(=O)c2c(C)c(C(=O)O)n(CCCOc3cc(C)c(Cl)c(C)c3)c2C)c1 | 550 nM |  |
| Cc1cc(OCCCn2c(C)c(S(=O)(=O)c3ccc(Br)cc3)c(C)c2C(=O)O)cc(C)c1Cl | 40 nM | inhibition (Bcl-2-like protein 1): 13%; inhibition [2]: 11.6%; inhibition [6]: 4.14%; IC50 (NCI-H929 [3]): 480 nM; IC50 (MV4-11): 1700 nM; IC50 (SK-BR-3): 5600 nM; IC50 (NCI-H23): 3840 nM; IC50 (K562 [4]): > 30000 nM |
| Cc1cc(OCCCn2c(C)c(S(=O)(=O)c3cccc(Br)c3)c(C)c2C(=O)O)cc(C)c1Cl | 60 nM |  |
